Key:
human IBAT = molecular target: T1, human IBAT (Homo sapiens, UniProt Q12908); assay: In vitro assay using Cos 7 cells, transiently expressed human IBAT; type: cell-based; conditions: [3H]-taurocholate 8 μM uptake, 37° C., 60 minutes
T1 sequence (Q12908 1-348): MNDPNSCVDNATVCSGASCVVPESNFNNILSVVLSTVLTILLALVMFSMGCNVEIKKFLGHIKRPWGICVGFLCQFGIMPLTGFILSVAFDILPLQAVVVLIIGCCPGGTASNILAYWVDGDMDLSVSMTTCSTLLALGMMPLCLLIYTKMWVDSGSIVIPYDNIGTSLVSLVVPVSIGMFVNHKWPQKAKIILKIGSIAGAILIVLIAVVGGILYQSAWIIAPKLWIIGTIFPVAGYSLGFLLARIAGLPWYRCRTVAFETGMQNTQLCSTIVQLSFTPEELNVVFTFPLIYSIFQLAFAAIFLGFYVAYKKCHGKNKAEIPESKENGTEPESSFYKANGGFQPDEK
Outline: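 Cos 7 cells transfected with human or rat IBAT cDNA were assayed one day later in Hanks buffer with 25 mM glucose and 10 mM HEPES (pH 7.4) containing compound. [^3H]-taurocholate (8 μM final) uptake ran 60 min at 37° C. Cells were washed with 1 mM taurocholate, lysed in NaOH, and counted by liquid scintillation.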

Caco-2 cell = assay: Gastrointestinal toxicity: cytotoxicity against Caco-2 cell (LDH activity); type: cell-based, human; conditions: 2 hours, LDH activity in medium relative to cell lysis agent = 100%
Outline: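 Caco-2 cells were grown 48 h, then exposed to compound in medium for 2 h. LDH released into the medium was measured, and cytotoxicity was expressed as activity relative to lysis-agent-treated cells (100%).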

male beagle dogs = assay: Effect of combination with pravastatin on plasma total cholesterol levels in dogs; type: in vivo, dog; conditions: for plasma total cholesterol BEFORE TREATMENT: Example compound 3 mg/kg alone group, baseline; for plasma total cholesterol BEFORE TREATMENT / plasma total cholesterol AFTER TREATMENT: N=4, mean±standard error; for plasma total cholesterol AFTER TREATMENT / plasma total cholesterol BEFORE TREATMENT − AFTER TREATMENT / reduction rate with respect to the data before administration (number in parenthesis): Example compound 3 mg/kg alone, oral once daily for 7 days; for plasma total cholesterol BEFORE TREATMENT − AFTER TREATMENT / reduction rate with respect to the data before administration (number in parenthesis): vehicle 1
Description: The effect of the combination of the compounds described in Example with pravastatin (HMG-CoA reductase inhibitor) on plasma cholesterol levels in dogs was examined.
To male beagle dogs (supplied from Kitayama Labes, body weight 9 to 13 kg), usual solid feedstuff (DS-A: Oriental Yeast Co., Ltd.) was given once daily at 13:00 to 14:00. The light was turned on from 7:00 to 19:00 as a light period, and the remaining was defined as a dark period. Water was given ad libitum. In the morning in the week prior to the administration, the blood was collected with heparin from forearm cephalic vein, and plasma was collected by centrifugation. The total cholesterol level of this plasma was measured using the commercially available cholesterol level measurement kit by the enzymatic method (Cholesterol-E Test Wako). The dogs were grouped so that the total cholesterol levels were almost equal. Sodium pravastatin (1 mg/kg, Sankyo) alone or 3 mg/kg of the compound described in each of Examples alone or the combination thereof was orally administered once daily just before feeding for 7 days. Pravastatin was dissolved in distilled water, and the compound described in Example was suspended in 0.5% methylcellulose solution for administration. On the day after the final administration, the blood was collected from the forearm cephalic vein under starving, to which plasma was obtained. The total cholesterol level therein was measured by the same way. As a result, the total cholesterol level in the plasma was reduced by 7 mg/dL (6%) by orally administering 1 mg/kg/day of pravastatin for 7 days. The total cholesterol level in the plasma was reduced by […] (3 to 8%) by orally administering 3 mg/kg/day of the compound described in each of Examples for 7 days. When pravastatin and the compound described in each of Examples were co-administered at this dosages, the total cholesterol in the plasma was reduced by 14 to 24 mg/dL (12 to 20%). The reduction rate of the total cholesterol level was larger in the co-administration with the compound described in Example than in the administration of pravastatin alone, and the augmented effect by the co-administration was observed.

[1] = system: rats fed cholesterol food; assay: Model for hepatic disorder associated with cholestasis (hepatic cell apoptosis): mitotic cells in liver; type: in vivo, rat; conditions: oral twice per day, 4 days, total in 10 sites of 200 μm×200 μm, control group 50 ± 13
Description: In the present test example, a model for the hepatic disorder associated with cholestasis was employed with reference to apoptosis induction in hepatic cells in a hypercholesterolemia model described in Am. J. Physiol., 1995, 268, G613-G621.
That is, the food containing 0.4% cholesterol and 0.5% bile acid was given to SD (IGS) strain male rats at 7 to 9 weeks of age for 4 days, and the test compound was orally administered forcibly twice per day everyday from the starting date of cholesterol food feeding (each n=8). As a control, another group (n=8) were merely fed cholesterol food. The blood was exsanguinated from abdominal aorta 3 hours after the drug administration on the final day of the experiment. Then the liver was immediately removed and fixed in 10% neutral buffered formalin solution (brand name: FA-F96, supplied from Kokusan Chemical Co. Ltd.). After fixing, the sample was dehydrated and embedded using a closed type automatic embedding apparatus (brand name: ETP-180B, supplied from Sakura Finetek Japan). […] A total number of mitotic cells in different 10 sites in the range of 200 μm×200 μm on each section was counted.

[2] = molecular target: T2, human IBAT transporter in which alanine at position 171 has been substituted with serine (Homo sapiens, UniProt Q12908); assay: In vitro assay using Cos 7 cells, human IBAT with alanine 171 substituted with serine; type: cell-based; conditions: 10 nM test compound
T2 sequence (Q12908 1-348): T1 sequence (Q12908 1-348)

C#CC[N+](C)(Cc1ccccc1)Cc1ccc(NC(=S)Nc2cccc(C3NC(CCCC)(CCCC)CS(=O)(=O)c4ccc(N(C)C)cc43)c2)cc1.[Br-] (racemic) [EXAMPLE 3448]
IC50 (human IBAT): 37 nM
CELL TOXICITY AGAINST Caco2 3 μM (Caco-2 cell): <1%
CELL TOXICITY AGAINST Caco2 10 μM (Caco-2 cell): <1%
CELL TOXICITY AGAINST Caco2 30 μM (Caco-2 cell): <1%

CCCCC1(CCCC)CS(=O)(=O)c2ccc(N(C)C)cc2C(c2cccc(NC(=S)Nc3ccc(C[N+]45CCC(c6ccccc6)(CC4)CC5)cc3)c2)N1.[Br-] (racemic) [EXAMPLE 3696]
IC50 (human IBAT): 39 nM
CELL TOXICITY AGAINST Caco2 3 μM (Caco-2 cell): <1%
CELL TOXICITY AGAINST Caco2 10 μM (Caco-2 cell): <1%
CELL TOXICITY AGAINST Caco2 30 μM (Caco-2 cell): <1%
plasma total cholesterol BEFORE TREATMENT (male beagle dogs): 119 ± 2 mg/dL
plasma total cholesterol AFTER TREATMENT (male beagle dogs): 115 ± 3 mg/dL
plasma total cholesterol BEFORE TREATMENT − AFTER TREATMENT (male beagle dogs): 3 (3) mg/dL
reduction rate with respect to the data before administration (number in parenthesis) (male beagle dogs): 3 (3)

CCCCC1(CCCC)CS(=O)(=O)c2ccc(N(C)C)cc2C(c2cccc(NC(=S)CCCCC[N+]34CCC(CC3)CC4)c2)N1.[Br-] (centres unmarked) [EXAMPLE 1, 1-{5-[3-(3,3-dibutyl-7-dimethylamino-1,1-dioxo-2,3,4,5-tetrahydro-1,4-benzothiazepine-5-yl)phenylthiocarbamoyl]pentyl}-1-azoniabicyclo[2.2.2]octane bromide]
MITOTIC CELLS IN LIVER (AVERAGE ± STANDARD ERROR, n = 8) ([1]; 0.1 mg/kg per administration): 36 ± 13
MITOTIC CELLS IN LIVER (AVERAGE ± STANDARD ERROR, n = 8) ([1]; 1 mg/kg per administration): 28 ± 7
Cos 7 WITH HUMAN IBAT IN WHICH 171ST ALANINE IS SUBSTITUTED WITH SERINE INHIBITION (%) AT TEST COMPOUND CONCENTRATION OF 10 nM [2]: 53%

CCCCC1(CCCC)CS(=O)(=O)c2ccc(N(C)C)cc2C(c2cccc(NC(=S)Nc3ccc(C[N+](C)(C)Cc4ccccc4)cc3)c2)N1.[Br-] (centres unmarked) [EXAMPLE 3440]
IC50 (human IBAT): 37 nM
CELL TOXICITY AGAINST Caco2 3 μM (Caco-2 cell): <1%
CELL TOXICITY AGAINST Caco2 10 μM (Caco-2 cell): <1%
CELL TOXICITY AGAINST Caco2 30 μM (Caco-2 cell): <1%

CCCCC1(CCCC)CS(=O)(=O)c2ccc(N(C)C)cc2C(c2cccc(NC(=S)Nc3ccc(C[N+]4(Cc5ccccc5)CCC(O)CC4)cc3)c2)N1.[Br-] (centres unmarked) [EXAMPLE 3605]
IC50 (human IBAT): 39 nM
CELL TOXICITY AGAINST Caco2 3 μM (Caco-2 cell): <1%
CELL TOXICITY AGAINST Caco2 10 μM (Caco-2 cell): <1%
CELL TOXICITY AGAINST Caco2 30 μM (Caco-2 cell): <1%

CCCCC1(CCCC)CS(=O)(=O)c2ccc(N(C)C)cc2C(c2cccc(NC(=S)Nc3ccc(C[n+]4ccc(C(C)(C)C)cc4)cc3)c2)N1.[Br-] (centres unmarked) [EXAMPLE 3713]
IC50 (human IBAT): 37 nM
CELL TOXICITY AGAINST Caco2 3 μM (Caco-2 cell): <1%
CELL TOXICITY AGAINST Caco2 10 μM (Caco-2 cell): <1%
CELL TOXICITY AGAINST Caco2 30 μM (Caco-2 cell): <1%
plasma total cholesterol BEFORE TREATMENT (male beagle dogs): 117 ± 4 mg/dL
plasma total cholesterol AFTER TREATMENT (male beagle dogs): 113 ± 3 mg/dL
plasma total cholesterol BEFORE TREATMENT − AFTER TREATMENT (male beagle dogs): 4 mg/dL
reduction rate with respect to the data before administration (number in parenthesis) (male beagle dogs): 3

CCCCC1(CCCC)CS(=O)(=O)c2ccc(N(C)C)cc2C(c2cccc(NC(=S)Nc3ccc(C[n+]4cccc(CCCO)c4)cc3)c2)N1.[Br-] (centres unmarked) [EXAMPLE 3747]
IC50 (human IBAT): 45 nM
CELL TOXICITY AGAINST Caco2 3 μM (Caco-2 cell): <1%
CELL TOXICITY AGAINST Caco2 10 μM (Caco-2 cell): <1%
CELL TOXICITY AGAINST Caco2 30 μM (Caco-2 cell): <1%

CCCCC1(CCCC)CS(=O)(=O)c2ccc(N(C)C)cc2C(c2cccc(NC(=S)Nc3ccc(C[n+]4cccc(CCC(=O)OC)c4)cc3)c2)N1.[Br-] (centres unmarked) [EXAMPLE 3752]
IC50 (human IBAT): 41 nM
CELL TOXICITY AGAINST Caco2 3 μM (Caco-2 cell): <1%
CELL TOXICITY AGAINST Caco2 10 μM (Caco-2 cell): <1%
CELL TOXICITY AGAINST Caco2 30 μM (Caco-2 cell): <1%

CCCCC1(CCCC)CS(=O)(=O)c2ccc(N(C)C)cc2C(c2cccc(NC(=S)Nc3ccc(C[n+]4ccccc4CCC)cc3)c2)N1.[Br-] (centres unmarked) [EXAMPLE 5408]
IC50 (human IBAT): 32 nM
CELL TOXICITY AGAINST Caco2 3 μM (Caco-2 cell): <1%
CELL TOXICITY AGAINST Caco2 10 μM (Caco-2 cell): <1%
CELL TOXICITY AGAINST Caco2 30 μM (Caco-2 cell): <1%
plasma total cholesterol BEFORE TREATMENT (male beagle dogs): 128 ± 4 mg/dL
plasma total cholesterol AFTER TREATMENT (male beagle dogs): 122 ± 4 mg/dL
plasma total cholesterol BEFORE TREATMENT − AFTER TREATMENT (male beagle dogs): 6 mg/dL
reduction rate with respect to the data before administration (number in parenthesis) (male beagle dogs): 5

Reference: patent US20120015925A1, “NOVEL BENZOTHIAZEPINE AND BENZOTHIEPINE COMPOUNDS” (ASAHI KASEI PHARMA CORPORATION, priority 2004, published 2012)
